{"source": "patent US9206246B2", "about": "“Heparin/heparan sulfate-dependent inhibitors of activated protein C and uses thereof in treating hemophilic disorders” (Academia Sinica, priority 2012, dated 2015)", "type_in_all_cases": "biochemical", "key": {"trypsin": {"test_system": "trypsin", "assay": "Selectivity profile, amidolytic activity of trypsin", "settings": "equimolar DrKIn-I and enzyme active site, trypsin 5 nM", "protocol": "(§1) In each of these experiments, the molar ratio of protease active site to inhibitor was 1:1. The final concentrations of these proteases and their respective substrates were as follows: FXIIa (20 nM)/S-2302 (0.2 mM), FXIa (2.5 nM)/S-2366 (0.2 mM), FXa (10 nM)/S-2222 (1.3 mM), FIXa (200 nM)/Spectrozyme FIXa (1.3 mM), FVIIa (100 nM)/S-2288 (1.3 mM), thrombin (5 nM)/T-1637 (0.2 mM), kallikrein (5 nM)/S-2302 (0.2 mM), plasmin (20 nM)/S-2251 (0.2 mM), tPA (80 nM)/Spectrozyme tPA (0.2 mM), uPA (100 nM)/S-2288 (1.3 mM), APC (10 nM)/Spectrozyme PCa (0.2 mM) and trypsin (5 nM)/S-2222 (0.2 mM). Results shown are means±SD of at least three experiments.\n(§2) DrKIn-I, with or without heparin, was screened for its inhibitory activity against trypsin and also against serine proteases in the coagulation cascade (FXIIa, FXIa, FXa, FIXa, FVIIa, thrombin and kallikrein) and in the fibrinolytic system (plasmin, tPA and uPA). The amidolytic activities of these proteases were determined in the presence or absence of equimolar concentrations of DrKIn-I using their respective chromogenic substrates."}, "thrombin": {"biological_target": "T1, thrombin (Homo sapiens, UniProt P00734)", "T1 construct": "thrombin, plasma kallikrein and plasmin were obtained; purchased Haematologic Technologies", "assay": "Selectivity profile, amidolytic activity of thrombin", "protocol": "as §1, §2"}, "[1]": {"test_system": "endogenously generated APC in normal plasma", "assay": "Thrombin generation assay in normal plasma", "settings": "200 nM DrKIn-I, 100 nM TM, 2 μg/ml heparan sulfate", "protocol": "Thrombin generation in normal (A) and protein C-deficient (B) plasma. Experiments were performed in the presence of heparan sulfate (2 μg/ml). Solid lines represent thrombin generation in the presence of 100 nM thrombomodulin (TM) and varying concentrations of DrKIn-I (●, 0 nM; ▪, 40 nM; ▴, 80 nM; ◯, 200 nM). Dashed lines represent thrombin generation in the absence of TM and DrKIn-I.\n(§3) Briefly, 80 μl of either normal plasma, protein C-deficient plasma, FVIII-deficient plasma or FIX deficient plasma containing 2 μM corn trypsin inhibitor, 2 μg/ml heparan sulfate (four disaccharide units long), 30 μM DOPC/DOPS/DOPE (60:20:20) and 100 nM recombinant TM was incubated with 20 μl of 500-fold diluted TF solution (Innovin; Dade Behring) in the absence or presence of the indicated concentrations of DrKIn-I. Following incubation for 3 minutes at 37° C., thrombin generation was initiated by the dispensation of 20 μl of 2.5 mM fluorogenic substrate (Z-Gly-Gly-Arg-AMC.HCl) dissolved in 0.15 M NaCl, 60 mg/ml BSA and 100 mM CaCl2. Measurements were taken at 1 minute intervals on a SpectraMax M2^e Microplate Reader using an excitation wavelength of 360 nm and an emission wavelength of 460 nm. In some assays, experiments were performed in the absence of thrombomodulin. Results were evaluated using the Technothrombin TGA software (Technoclone)."}, "FIX-deficient plasma": {"test_system": "FIX-deficient plasma", "assay": "Thrombin generation assay in FIX-deficient plasma", "settings": "100 nM TM, 2 μg/ml heparan sulfate", "protocol": "(A) Representative thrombin generation curves in FVIII-deficient and FIX-deficient plasma performed in the presence of heparan sulfate (2 μg/ml), TM (100 nM) and varying concentrations of DrKIn-I (●, 0 nM; ▪, 20 nM; ▴, 40 nM; ▾, 80 nM; ◯, 200 nM). Dashed lines represent thrombin generation in the absence of TM and DrKIn-I. (B-C) Activity in FVIII-deficient (B) and FIX-deficient (C) plasma. Left panels show ETP; right panels, peak thrombin. For comparison, dashed lines represent the activity of normal plasma containing TM and heparan sulfate in the absence of the inhibitor. Results are represented as means±SEM of at least three independent experiments.\nas §3, with “Measurements were taken at 1 minute intervals on a SpectraMax M2^e Microplate Reader using an excitation wavelength of 360 nm and an emission wavelength of 460 nm. In some assays, experiments were performed in the absence of thrombomodulin.” left out"}, "[2]": {"test_system": "APC in FVIII-deficient plasma", "assay": "APTT-based APC resistance assay in FVIII-deficient plasma", "settings": "200 nM DrKIn-I, 40 nM APC, 2 μg/ml heparan sulfate", "protocol": "APTT-based clotting times were measured in normal, FVIII-deficient and FIX-deficient plasma containing 2 μg/ml heparan sulfate in the presence or absence of 40 nM APC and the indicated concentrations of DrKIn-I. Results shown are means±S.D. of at least three experiments.\n50 μl of normal plasma, FVIII-deficient plasma or FIX-deficient plasma supplemented with 2 μg/ml heparan sulfate (four disaccharide units long) was exposed to APC (40 nM) and varying concentrations of DrKIn-I (50-200 nM). 50 μl of activated partial thromboplastin (APTT) reagent (HYPHEN Biomed) was added and incubated for 1 minute at 37° C. Finally, clotting was initiated by adding 50 μl of 20 mM CaCl2. Coagulation times, which reflect the activities of APC, were recorded on a coagulometer (Hemostasis Analyzer KC-1; Sigma Diagnostics)."}, "plasmin": {"test_system": "plasmin", "assay": "Euglobulin clot lysis assay"}, "APC": {"biological_target": "APC (Homo sapiens, UniProt P04070)", "sequence (P04070 212-450 limits assumed)": "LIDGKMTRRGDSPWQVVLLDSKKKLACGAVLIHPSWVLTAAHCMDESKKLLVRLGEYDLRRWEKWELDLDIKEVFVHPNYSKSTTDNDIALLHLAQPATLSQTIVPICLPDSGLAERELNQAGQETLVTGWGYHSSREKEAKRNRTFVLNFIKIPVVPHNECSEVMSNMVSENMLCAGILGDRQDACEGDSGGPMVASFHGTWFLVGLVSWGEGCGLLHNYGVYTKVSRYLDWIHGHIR", "sequence (P04070 43-197 limits assumed)": "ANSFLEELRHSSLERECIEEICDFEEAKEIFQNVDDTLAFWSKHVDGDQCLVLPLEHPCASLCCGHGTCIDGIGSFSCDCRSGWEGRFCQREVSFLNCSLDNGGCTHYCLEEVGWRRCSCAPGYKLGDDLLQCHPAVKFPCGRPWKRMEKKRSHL", "assay": "Kinetic analysis of APC inhibition (Morrison tight binding equation)", "parameters": "purchased Haematologic Technologies", "protocol": "Initial velocities of APC (20 nM) were measured in the presence of increasing concentrations of DrKIn-I (0-80 nM) using different concentrations of Spectrozyme PCa (●, 0.4 mM; ▪, 0.2 mM; ▴, 0.1 mM; ▾, 0.05 mM; ♦, 0.025 mM) as substrate.\nAPC was incubated with heparin and increasing concentrations of DrKIn-I for 3 minutes. The initial reaction velocities (mOD405 nm/min) were then determined at 37° C. after the addition of varying concentrations of Spectrozyme PCa. The final concentrations were as follows: APC (20 nM), heparin (0.1 U/ml), DrKIn-I (0-80 nM) and Spectrozyme PCa (0.025-0.4 mM). Initial velocities were plotted against inhibitor concentrations for each substrate concentration tested and the plots were subjected to nonlinear least squares regression using GraphPad Prism software. The inhibition constant (Ki) of DrKIn-I was determined by global fitting to Morrison's tight binding equation as shown below, Vs=(Vo/2Et){[Ki′+It−Et)^2+4Ki′Et]^1/2−(Ki′+It−Et) (Eq. 1) where Vs is the steady state velocity in the presence of inhibitor, while Vo is the velocity in the absence of inhibitor. It is the total inhibitor concentration and Et is the total enzyme concentration. Ki′ is the apparent inhibition constant. […] (vii) Selectivity Profile of DrKIn-I"}}, "note": "Where “and” joins values, the source holds several entries; their conditions need not be identical. Equal entries are not always repeated."}
{"substance": "DrKIn-I (CGGNDNNFETRKKCRQTCGAPRKGRPT)", "values": [{"measurement": "inhibition of trypsin", "setting": "trypsin", "result": "~45", "unit": "%"}, {"measurement": "inhibitory activity against thrombin", "setting": "thrombin", "result": "no inhibitory activities"}, {"measurement": "thrombin generation", "setting": "[1]", "result": "thrombin generation reached that observed in the absence of APC activity"}, {"measurement": "DrKIn-I concentration correcting ETP to normal levels", "setting": "FIX-deficient plasma", "result": 160, "unit": "nM"}, {"measurement": "peak thrombin level relative to normal plasma (partial correction)", "setting": "FIX-deficient plasma", "result": "approximately 85%"}, {"measurement": "clotting time", "setting": "[2]", "result": "almost completely restored the clotting time to that observed in the absence of APC"}, {"measurement": "prolongation of euglobulin clot lysis time", "setting": "plasmin; 20 nM inhibitor", "result": "failed to prolong the clot lysis time"}, {"measurement": "prolongation of euglobulin clot lysis time", "setting": "plasmin; 100 nM inhibitor", "result": "approximately an hour"}, {"measurement": "Ki", "setting": "APC; 0.1 U/ml heparin, APC 20 nM, read-out: inhibition constant (Ki)", "result": "0.053 nM and ~0.053 nM and ~0.05 nM"}, {"measurement": "ratio of Ki for FXIa and plasmin to Ki for APC", "setting": "APC; in the presence of heparin", "result": "at least 25 fold"}]}
